Calls of active or inactive are those of the source.
Assays:
Assay type in all cases: functional
[1] = Vero cell cytotoxicity, dose response, cytotoxicity control for M. tuberculosis growth inhibitor project, Vero cells, purified and synthesized compounds, set 4 (AID 504854); conditions: Mycobacterium tuberculosis
[2] = THP-1 cell cytotoxicity, cytotoxicity control, set 4 (AID 504911); conditions: Mycobacterium tuberculosis
[3] = biological target: Dual specificity protein kinase CLK2 (Homo sapiens, UniProt P49760)
[4] = biological target: Dual specificity protein kinase CLK4 (Homo sapiens, UniProt Q9HAZ1)
Dual specificity protein kinase CLK4, sequence (Q9HAZ1 whole entry): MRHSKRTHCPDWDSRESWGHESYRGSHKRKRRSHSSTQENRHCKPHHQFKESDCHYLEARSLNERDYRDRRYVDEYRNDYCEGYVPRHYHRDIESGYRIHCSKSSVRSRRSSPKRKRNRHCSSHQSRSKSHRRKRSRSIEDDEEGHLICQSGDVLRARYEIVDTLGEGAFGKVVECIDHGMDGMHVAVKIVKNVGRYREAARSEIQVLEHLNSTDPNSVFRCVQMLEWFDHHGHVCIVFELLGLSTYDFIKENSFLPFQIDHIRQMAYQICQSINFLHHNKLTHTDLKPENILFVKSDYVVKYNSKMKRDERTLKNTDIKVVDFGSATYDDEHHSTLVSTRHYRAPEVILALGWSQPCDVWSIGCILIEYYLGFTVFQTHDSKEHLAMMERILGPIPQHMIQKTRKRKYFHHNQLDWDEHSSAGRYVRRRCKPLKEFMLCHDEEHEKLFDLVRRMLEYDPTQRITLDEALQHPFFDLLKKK

[5] = biological target: Serine/threonine-protein kinase pim-1 (Homo sapiens, UniProt P11309)
Serine/threonine-protein kinase pim-1, sequence (P11309 whole entry): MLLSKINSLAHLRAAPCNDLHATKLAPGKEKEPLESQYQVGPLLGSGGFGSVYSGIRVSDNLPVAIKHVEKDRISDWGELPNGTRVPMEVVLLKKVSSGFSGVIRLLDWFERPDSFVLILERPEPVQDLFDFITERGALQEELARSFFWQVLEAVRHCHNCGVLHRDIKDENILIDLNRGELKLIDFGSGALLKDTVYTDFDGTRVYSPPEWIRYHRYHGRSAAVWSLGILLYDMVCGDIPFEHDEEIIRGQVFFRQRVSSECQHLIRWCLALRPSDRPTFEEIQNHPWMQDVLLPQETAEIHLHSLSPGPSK

[6] = biological target: Melanin-concentrating hormone receptor 1 (Homo sapiens, UniProt Q99705); test: Late-stage fluorescence-based counterscreen for antagonists of the G-protein coupled receptor 7 (GPR7): cell-based dose response assay to identify antagonists of the melanin-concentrating hormone receptor 1 (MCHR1) Set 5.
Melanin-concentrating hormone receptor 1, sequence (Q99705 whole entry): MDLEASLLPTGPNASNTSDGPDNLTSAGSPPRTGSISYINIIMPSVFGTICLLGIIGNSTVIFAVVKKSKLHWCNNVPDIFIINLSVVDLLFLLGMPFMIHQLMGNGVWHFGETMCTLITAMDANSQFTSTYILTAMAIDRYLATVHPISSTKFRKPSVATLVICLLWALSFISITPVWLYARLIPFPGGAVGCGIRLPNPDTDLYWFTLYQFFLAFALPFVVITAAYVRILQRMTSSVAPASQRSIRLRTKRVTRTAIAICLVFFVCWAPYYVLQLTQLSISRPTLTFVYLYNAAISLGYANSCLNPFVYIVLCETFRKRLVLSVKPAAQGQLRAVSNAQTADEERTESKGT

[7] = biological target: Cyclin-dependent kinase 19 (Homo sapiens, UniProt Q9BWU1); test: Navigating the Kinome. Panel member name: CDC2L6
[8] = biological target: ALK tyrosine kinase receptor (Homo sapiens, UniProt Q9UM73);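 note: ALK tested as one member of a kinase panel screen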
[9] = biological target: Glycogen synthase kinase-3 alpha (Homo sapiens, UniProt P49840);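 note: GSK3A result taken from a broad kinome-wide kinase panel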
Glycogen synthase kinase-3 alpha, sequence (P49840 whole entry): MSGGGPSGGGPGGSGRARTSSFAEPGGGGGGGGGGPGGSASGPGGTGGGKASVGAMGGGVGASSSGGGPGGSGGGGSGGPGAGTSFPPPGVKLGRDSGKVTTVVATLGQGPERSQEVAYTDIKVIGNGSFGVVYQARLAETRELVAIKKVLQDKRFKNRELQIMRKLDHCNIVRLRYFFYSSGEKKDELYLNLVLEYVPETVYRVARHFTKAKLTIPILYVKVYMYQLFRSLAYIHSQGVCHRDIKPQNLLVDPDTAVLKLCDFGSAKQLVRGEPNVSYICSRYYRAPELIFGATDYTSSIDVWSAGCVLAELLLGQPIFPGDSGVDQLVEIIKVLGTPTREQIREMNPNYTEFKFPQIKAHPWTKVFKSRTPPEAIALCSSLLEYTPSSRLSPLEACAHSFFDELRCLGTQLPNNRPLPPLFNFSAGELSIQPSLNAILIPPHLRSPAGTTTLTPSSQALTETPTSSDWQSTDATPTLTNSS

[10] = biological target: Receptor-type tyrosine-protein kinase FLT3 (Homo sapiens, UniProt P36888);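 note: FLT3 was tested as one member of a kinome-wide kinase panel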
Receptor-type tyrosine-protein kinase FLT3, sequence (P36888 whole entry): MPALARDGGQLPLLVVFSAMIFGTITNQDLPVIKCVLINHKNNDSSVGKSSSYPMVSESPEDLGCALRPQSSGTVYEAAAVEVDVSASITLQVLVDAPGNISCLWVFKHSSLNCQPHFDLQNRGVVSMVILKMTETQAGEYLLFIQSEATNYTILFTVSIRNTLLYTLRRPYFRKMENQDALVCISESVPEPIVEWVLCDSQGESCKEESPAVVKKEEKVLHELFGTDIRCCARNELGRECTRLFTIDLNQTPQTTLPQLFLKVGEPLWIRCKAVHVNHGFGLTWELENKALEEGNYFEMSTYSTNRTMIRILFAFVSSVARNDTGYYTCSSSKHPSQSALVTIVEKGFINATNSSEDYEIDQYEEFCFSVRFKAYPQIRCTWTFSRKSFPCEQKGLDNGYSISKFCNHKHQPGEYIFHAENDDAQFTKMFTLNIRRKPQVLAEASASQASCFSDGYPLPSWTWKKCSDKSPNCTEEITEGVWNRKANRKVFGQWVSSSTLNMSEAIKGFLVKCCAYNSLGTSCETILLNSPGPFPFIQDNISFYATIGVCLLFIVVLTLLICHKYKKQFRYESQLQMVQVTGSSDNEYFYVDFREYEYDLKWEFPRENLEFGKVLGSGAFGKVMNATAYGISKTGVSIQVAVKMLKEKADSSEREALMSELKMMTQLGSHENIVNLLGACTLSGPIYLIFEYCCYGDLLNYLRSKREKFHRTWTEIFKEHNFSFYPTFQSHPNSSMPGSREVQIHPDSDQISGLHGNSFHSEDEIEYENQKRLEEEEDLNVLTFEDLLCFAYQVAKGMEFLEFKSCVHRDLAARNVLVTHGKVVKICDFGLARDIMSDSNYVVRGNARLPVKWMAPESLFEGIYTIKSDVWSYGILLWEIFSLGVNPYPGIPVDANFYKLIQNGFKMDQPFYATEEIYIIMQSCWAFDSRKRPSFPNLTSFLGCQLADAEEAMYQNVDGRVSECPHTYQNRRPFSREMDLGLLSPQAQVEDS

[11] = biological target: T1, Glycogen synthase kinase-3 beta (Homo sapiens, UniProt P49841);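 note: value comes from a broad kinome profiling panel, with GSK3B as the panel member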
T1 sequence (P49841 whole entry): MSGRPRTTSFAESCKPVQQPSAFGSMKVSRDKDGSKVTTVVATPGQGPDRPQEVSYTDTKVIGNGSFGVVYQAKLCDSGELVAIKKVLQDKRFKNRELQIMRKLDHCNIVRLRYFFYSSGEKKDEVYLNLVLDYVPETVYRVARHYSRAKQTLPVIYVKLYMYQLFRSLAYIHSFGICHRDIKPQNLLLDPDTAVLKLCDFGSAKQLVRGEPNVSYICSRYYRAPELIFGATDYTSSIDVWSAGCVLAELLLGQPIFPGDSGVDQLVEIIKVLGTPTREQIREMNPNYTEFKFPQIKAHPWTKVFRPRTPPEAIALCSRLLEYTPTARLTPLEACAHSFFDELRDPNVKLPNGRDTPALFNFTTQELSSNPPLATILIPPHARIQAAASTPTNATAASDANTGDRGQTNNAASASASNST

Activin receptor type-1 = Activin receptor type-1 (Homo sapiens, UniProt Q04771); test: Navigating the Kinome. Panel member name: ACVR1
Aurora kinase A = Aurora kinase A (Homo sapiens, UniProt O14965);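 note: value from the Navigating the Kinome kinase panel profiling, panel entry STK6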
[12] = biological target: Vascular endothelial growth factor receptor 2 (Homo sapiens, UniProt P35968)
Vascular endothelial growth factor receptor 2, sequence (P35968 whole entry): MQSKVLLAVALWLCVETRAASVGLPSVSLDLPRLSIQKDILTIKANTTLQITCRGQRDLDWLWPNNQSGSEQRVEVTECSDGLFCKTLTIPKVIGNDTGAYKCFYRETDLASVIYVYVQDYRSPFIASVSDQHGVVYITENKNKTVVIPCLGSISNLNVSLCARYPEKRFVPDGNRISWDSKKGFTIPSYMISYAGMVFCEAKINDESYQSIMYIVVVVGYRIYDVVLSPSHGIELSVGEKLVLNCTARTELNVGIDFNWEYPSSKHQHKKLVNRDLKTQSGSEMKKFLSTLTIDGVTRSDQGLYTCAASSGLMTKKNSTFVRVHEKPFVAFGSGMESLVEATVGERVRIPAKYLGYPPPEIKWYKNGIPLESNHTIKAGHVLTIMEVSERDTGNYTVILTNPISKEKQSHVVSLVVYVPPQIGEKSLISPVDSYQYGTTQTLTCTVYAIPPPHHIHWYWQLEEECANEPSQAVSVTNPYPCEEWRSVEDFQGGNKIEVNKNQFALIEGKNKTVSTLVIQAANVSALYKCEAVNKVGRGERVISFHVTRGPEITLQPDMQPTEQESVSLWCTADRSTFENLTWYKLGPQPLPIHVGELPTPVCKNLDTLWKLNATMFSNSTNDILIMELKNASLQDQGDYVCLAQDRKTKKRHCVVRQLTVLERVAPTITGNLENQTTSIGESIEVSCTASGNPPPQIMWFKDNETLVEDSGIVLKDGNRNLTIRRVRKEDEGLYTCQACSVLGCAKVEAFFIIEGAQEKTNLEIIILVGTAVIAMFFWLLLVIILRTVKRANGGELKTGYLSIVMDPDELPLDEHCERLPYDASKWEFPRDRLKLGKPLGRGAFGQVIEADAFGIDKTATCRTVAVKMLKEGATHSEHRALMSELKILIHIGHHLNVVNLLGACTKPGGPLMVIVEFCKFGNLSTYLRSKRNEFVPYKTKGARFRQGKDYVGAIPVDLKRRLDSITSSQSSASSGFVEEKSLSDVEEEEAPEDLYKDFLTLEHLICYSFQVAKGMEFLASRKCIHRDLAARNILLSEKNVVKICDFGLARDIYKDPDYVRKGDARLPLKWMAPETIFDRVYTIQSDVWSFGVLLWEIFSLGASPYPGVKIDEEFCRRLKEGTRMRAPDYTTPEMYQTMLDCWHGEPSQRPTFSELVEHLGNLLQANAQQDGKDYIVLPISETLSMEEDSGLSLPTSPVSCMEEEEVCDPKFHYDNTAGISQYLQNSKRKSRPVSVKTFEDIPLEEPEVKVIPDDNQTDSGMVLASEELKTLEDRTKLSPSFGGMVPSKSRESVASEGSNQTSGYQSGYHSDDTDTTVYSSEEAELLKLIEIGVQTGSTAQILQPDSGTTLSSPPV

Aurora kinase B = Aurora kinase B (Homo sapiens, UniProt Q96GD4)
Aurora kinase B, sequence (Q96GD4 whole entry): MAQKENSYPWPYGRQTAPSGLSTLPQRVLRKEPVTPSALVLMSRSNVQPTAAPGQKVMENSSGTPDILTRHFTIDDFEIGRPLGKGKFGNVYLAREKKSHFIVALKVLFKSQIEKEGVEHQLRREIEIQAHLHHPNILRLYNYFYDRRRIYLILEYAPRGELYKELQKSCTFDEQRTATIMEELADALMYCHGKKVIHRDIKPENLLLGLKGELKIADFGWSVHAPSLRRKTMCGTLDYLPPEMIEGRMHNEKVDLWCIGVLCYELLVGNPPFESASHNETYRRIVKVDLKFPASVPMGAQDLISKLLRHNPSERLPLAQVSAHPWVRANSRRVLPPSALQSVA

[13] = biological target: Cyclin-dependent kinase 5/CDK5 activator 1 (Homo sapiens, UniProt Q00535); test: inhibitors of human CDK5 activity – biochemical, microfluidic mobility shift, dry powder, set 2, selectivity assay for GSK3beta inhibitor project, dose response (AID 623979)
[14] = biological target: T1, Glycogen synthase kinase-3 beta; test: inhibition of human GSK3B activity – biochemical, microfluidics, dry powder samples, set 2, dose response (AID 623989)

CC(C)NC(=O)CSc1nc2ccccc2c(=O)[nH]1
CC50 [1]: > 100 µM (active) | CC50 [2]: > 100 µM (active)

COCCn1c(C)c(C)sc1=NC(=O)c1cc(SC)ccc1Cl
Ki [3]: 6.31 µM (active) | Ki [4]: 5.01 µM (active) | Ki [5]: 6.31 µM (active)

COc1ccc(Oc2c(Cl)cnn(C3=Nc4cc(Cl)ccc4Oc4ncccc43)c2=O)cc1
IC50 [6]: 8.51 µM (active)

Cn1cc(Nc2ncc(Br)c(Nc3cccc(C(N)=O)c3)n2)cn1
Ki [7]: 6.31 µM (active) | Ki [8]: 3.16 µM (active)

CCc1cnn2c(NCc3ccc[n+]([O-])c3)cc(N3CCCCC3CCO)nc12 (configuration not stated)
Ki [9]: 1.58 µM (active) | Ki [10]: > 3.16 µM (inactive) | Ki [11]: 1.26 µM (active) | Ki (Activin receptor type-1): > 3.98 µM (inactive)

O=C1NC(=S)NC(=O)C1=Cc1ccc(-c2ccc(C(=O)O)c(O)c2)o1
Ki (Aurora kinase A): 0.126 µM (active) | Ki [12]: > 5.01 µM (inactive) | Ki (Aurora kinase B): 0.0398 µM (active)

O=C(Cc1cccc2ccccc12)Nc1cn(C2CCC2)cn1
AC50 [13]: 0.137 µM (active) | AC50 [14]: 8.41 µM (active)

From ChEMBL document CHEMBL1201862, “PubChem BioAssay data set” (2004)
